# According to US20190374554A1, “USE OF OXYGENATED CHOLESTEROL SULFATES (OCS) TO TREAT INFLAMMATORY SKIN DISEASE AND SKIN LESIONS” (Virginia Commonwealth University, priority 2016, published 2019):
# Where “and” joins values, the source holds several entries; their conditions need not be identical. Identical values can stand only once.
# What was measured:
# psoriasis plaques = experiment: Proof of concept study of single intralesional doses in psoriasis patients, microplaque assay (LPSI); format: in vivo, human; details: single intralesional dose (3 injections of 100 μL); 14 day scoring period
# Description: The objectives of this study were: • To establish preliminary evidence for the efficacy of intralesionally injected 25HC3S in patients with psoriasis, as assessed by microplaque assay. • To assess the safety of 25HC3S in patients with psoriasis. • Compare evidence for the efficacy of different formulations of intralesionally injected 25HC3S.
# • This trial was a double-blind, within-participant, randomized, vehicle and active comparator-controlled, single-dose study. Participants attended a screening visit within 28 days of dosing. A target plaque(s) of psoriasis was selected. • Day 0: each participant was treated with 2 different formulations of study drug, 2 vehicle formulations, one active comparator and one untreated area (6 treatments in total). Each treatment was administered to every participant as an intralesional injection, with the exception of the untreated area. • Participants were required to return for outpatient visits for microplaque assessments at Day 1, Day 2, Day 7 and Day 14. Treatment Formulations: Table 12 lists the formulated drug products and Table 13 lists the amounts injected.
# Ten patients with mild to severe psoriasis were enrolled into this clinical trial after screening. […]
# The effect of 25HC3S in psoriasis was assessed by the change of LPSI score as compared to vehicle or untreated in this microplaque assay. […]
# [1] = Infusion compatibility: 25HC3S diluted in 0.9% sodium chloride infusion bag and eluted through infusion sets (potency, osmolality, pH, appearance); format: physicochemical; details: for After Storage in Infusion Bag and Collection from Infusion Set % Remaining Compared to T = 0 / After Storage in Infusion Bag and Collection from Infusion Set Concentration / After Storage in Infusion Bag and Collection from Infusion Set Osmolality / After Storage in Infusion Bag and Collection from Infusion Set pH: 0.9% sodium chloride, approx. 0.28 mg/mL
# Procedure: A physical and chemical compatibility study was conducted at a 30 mg, 48 mg and 300 mg 25HC3S dose in 5% dextrose and 0.9% sodium chloride infusion bags. Descriptions of the two kinds of infusion sets tested with 25HC3S product diluted in 5% dextrose and 0.9% sodium chloride are listed in Table 15. The tubing in catalog number 2H8480 infusion set was composed of polyvinylchloride (PVC), while the tubing in catalog number 2C8858 was polyethylene lined except for a short pump segment (approximately 12 inches) which was composed of PVC.
# 25HC3S for Injection and Vehicle for 25HC3S for Injection, that had been stored at 2-8° C. for approximately 16 months, were used for the compatibility study. After constitution, 30 mg (1.0 mL of constituted product), 48 mg (1.6 mL of constituted product) or 300 mg (10 mL of constituted product) were added to 100 mL infusion bags of 5% dextrose and 0.9% sodium chloride, mixed thoroughly, and stored for 24 hours at room temperature and at 2-8° C. […] Taking into consideration the overfill per infusion bag and the additional volume introduced by adding the constituted 25HC3S product to each bag, the expected concentrations of 25HC3S were 0.28 mg/mL, 0.44 mg/mL, and 2.56 mg/mL in the infusion bags. Two kinds of infusion sets were then attached to the drug containing infusion bags, and the entire contents were eluted through the infusion sets at approximately 50 mL/hour at room temperature. Samples were collected from the 25HC3S prepared infusion bags at T=0 and at 24 hours, and from the total eluent passed through the infusion sets, and tested for 25HC3S concentration using HPLC. Solution visual appearance, osmolality (using method USP<785>), and pH (using method USP<791>) were also measured on the collected samples.
# [2] = 0.9% sodium chloride bag, approx. 0.28 mg/mL 25HC3S
# [3] = 0.9% sodium chloride bag, approx. 0.44 mg/mL 25HC3S
# [4] = 0.9% sodium chloride bag, approx. 2.56 mg/mL 25HC3S
# [5] = bag 24 h at 2-8° C., Baxter 2C8858
# [6] = bag 24 h at 2-8° C., Baxter 2H8480
# [7] = bag 24 h at 25° C., Baxter 2C8858
compound,measurement,setting,value
"C[C@H](CCCC(C)(C)O)[C@H]1CC[C@H]2[C@@H]3CC=C4C[C@@H](OS(=O)(=O)[O-])CC[C@]4(C)[C@H]3CC[C@]12C.[Na+] [Formulation 25HC3S, 5-cholesten-3, 25-diol, 3-sulfate]",effect on psoriatic plaques based on LPSI score,psoriasis plaques,exhibited efficacy in psoriatic plaques by reducing LPSI
same,24 Hours at 2-8° C. Concentration,[1]; [2],0.275 mg/mL
same,24 Hours at 2-8° C. Osmolality,[1]; [2],276 mmol/kg
same,24 Hours at 2-8° C. pH,[1]; [2],5.87 and 5.99
same,24 Hours at 25° C. Concentration,[1]; [2],0.272 mg/mL and 0.274 mg/mL
same,24 Hours at 25° C. Osmolality,[1]; [2],275 mmol/kg and 277 mmol/kg
same,24 Hours at 25° C. pH,[1]; [2],5.93 and 5.92
same,T = 0 Conc.,[1]; [2],0.273 mg/mL and 0.274 mg/mL and 0.275 mg/mL
same,T = 0 Osmolality,[1]; [2],278 mmol/kg and 277 mmol/kg
same,T = 0 pH,[1]; [2],6.39 and 6.43 and 6.45 and 6.40
same,24 Hours at 2-8° C. % Remaining Compared to T = 0,[1]; [3],(100.0%)
same,24 Hours at 2-8° C. Concentration,[1]; [3],0.434 mg/mL and 0.425 mg/mL
same,24 Hours at 2-8° C. Osmolality,[1]; [3],281 mmol/kg
same,24 Hours at 2-8° C. pH,[1]; [3],7.43 and 7.19
same,24 Hours at 25° C. % Remaining Compared to T = 0,[1]; [3],(100.0%)
same,24 Hours at 25° C. Concentration,[1]; [3],0.434 mg/mL and 0.424 mg/mL
same,24 Hours at 25° C. Osmolality,[1]; [3],280 mmol/kg
same,24 Hours at 25° C. pH,[1]; [3],7.33 and 7.41
same,T = 0 Conc.,[1]; [3],0.434 mg/mL and 0.424 mg/mL and 0.425 mg/mL
same,T = 0 Osmolality,[1]; [3],277 mmol/kg and 279 mmol/kg and 284 mmol/kg and 280 mmol/kg
same,T = 0 pH,[1]; [3],7.30 and 7.43 and 7.21 and 7.44
same,24 Hours at 2-8° C. Concentration,[1]; [4],2.510 mg/mL and 2.520 mg/mL
same,24 Hours at 2-8° C. Osmolality,[1]; [4],283 mmol/kg
same,24 Hours at 2-8° C. pH,[1]; [4],5.93 and 5.96
same,24 Hours at 25° C. Concentration,[1]; [4],2.500 mg/mL and 2.525 mg/mL
same,24 Hours at 25° C. Osmolality,[1]; [4],282 mmol/kg
same,24 Hours at 25° C. pH,[1]; [4],6.01 and 5.86
same,T = 0 Conc.,[1]; [4],2.450 mg/mL and 2.530 mg/mL and 2.525 mg/mL
same,T = 0 Osmolality,[1]; [4],282 mmol/kg and 281 mmol/kg
same,T = 0 pH,[1]; [4],6.20 and 6.10 and 6.07 and 6.11
same,After Storage in Infusion Bag and Collection from Infusion Set % Remaining Compared to T = 0,[1]; [5],(100.0%)
same,After Storage in Infusion Bag and Collection from Infusion Set Concentration,[1]; [5],0.275 mg/mL
same,After Storage in Infusion Bag and Collection from Infusion Set Osmolality,[1]; [5],276 mmol/kg
same,After Storage in Infusion Bag and Collection from Infusion Set pH,[1]; [5],5.78
same,After Storage in Infusion Bag and Collection from Infusion Set % Remaining Compared to T = 0,[1]; [6],(100.4%)
same,After Storage in Infusion Bag and Collection from Infusion Set Concentration,[1]; [6],0.275 mg/mL
same,After Storage in Infusion Bag and Collection from Infusion Set Osmolality,[1]; [6],277 mmol/kg
same,After Storage in Infusion Bag and Collection from Infusion Set pH,[1]; [6],5.81
same,After Storage in Infusion Bag and Collection from Infusion Set % Remaining Compared to T = 0,[1]; [7],(100.0%)
same,After Storage in Infusion Bag and Collection from Infusion Set Concentration,[1]; [7],0.274 mg/mL
same,After Storage in Infusion Bag and Collection from Infusion Set Osmolality,[1]; [7],276 mmol/kg
same,After Storage in Infusion Bag and Collection from Infusion Set pH,[1]; [7],5.83
same,After Storage in Infusion Bag and Collection from Infusion Set % Remaining Compared to T = 0,"[1]; bag 24 h at 25° C., Baxter 2H8480",(99.6%)
